Results as given in patent US20030195168A1, “Therapeutic agents - III” (priority 2000, published 2003).

What was measured:
[1] = molecular target: T1, PKCα (Homo sapiens, UniProt P17252); assay type: cell-based; details: HeLa
T1 construct: host or cells: HeLa cells
Protocol: Five EGFP-PKC isoforms (Clontech) were available for this experiment, enabling the screening of the three predominant PKC families (i.e. classical, novel and atypical PKCs). The members of the various PKC families are α, β, and γ (classical), θ (novel) and ζ (atypical).
HeLa cells were plated out in a 24-well plate containing coverslips and transfected with PKC isoforms fused to EGFP, using a commercially available effectine-transfection kit (QIAGEN, Pty. Ltd.). Cells were exposed to the transfection reagents for 16-24 hr. Subsequently, transfected cells were treated for one hour with TPA (100 ng/mL), bryostatin-1 (5 pg/mL), PEP003 (2.25 μg/mL; 5 μM) or PEP005 ([…]) 1.5 μM). Following treatment, cells were fixed on coverslips and mounted on glass slides. The slides were subsequently examined visually by fluorescence microscopy, photographed, and over 150 cells were counted/treatment/PKC isoform. Counted cells were classified according to the localisation of the PKC-EGFP fluorescence as either cytoplasmic or plasma membrane using ImagePro™ 4.1 (FIG. 5). […] The number of these cells was also counted.

[2] = tested on: latently HIV-1 infected cell line (U1); assay: Activation of latent HIV from U1 cells (p24 ELISA); assay type: cell-based, HIV-1 LAI strain; details: 20 hr, FIG. 7
Excerpt: However, the regimen is very burdensome, requiring strict adherence to prevent a recurrence of viraemia. Long-lived cells […], such as CD4^+ cells, act as a major latent reservoir and enable the virus to avoid anti-retroviral chemotherapy or immune system surveillance. There is, therefore, an urgent need to find an agent which activates latent virus from the infected cells. Activated virus could then be killed by aggressive anti-retroviral chemotherapy and it has been hypothesized that immune system surveillance could also be improved under these conditions. Such an agent could have utility in other disease states in which virus is sequestered in infected cells, e.g. herpes infections. Anti-cancer agents have been widely investigated as potential anti-HIV agents. […] However, PMA is a known tumor promoter. A latently HIV-1 infected cell line (U1), derived from the promonocytic cell line U937 after infection with HIV-1 LAI strain, was used in these experiments. In the absence of activation, no or little virus (measured as p24 production) is produced by the U1 cell line. […]
Supernatants were collected and viral replication monitored by determination of the amounts of HIV p24 gag protein in the culture supernatants by ELISA, using a NEN Life Science HIV-1 p24 ELISA kit. p24 values were calculated from OD values using a standard curve.

[3] = tested on: HIV-strain pNL4-3; assay: HIV-1 replication in acutely infected PBMC (CA-p24 ELISA); assay type: cell-based
Protocol: Experiments were conducted to assess the effect of the compounds of the instant invention on HIV-1 replication in acutely infected T cells. Peripheral blood mononuclear cells (PBMC) were obtained from non-HIV-1, non-HIV-2, non-Hepatitis B/C infected donors, stimulated with phytohemagglutinin-M and grown in culture media supplemented with 10 U/mL interleukin-2. The activated PBMC were infected with […] (Low Titre) and 100 ng (High Titre) of CA-p24 equivalents of the HIV-strain pNL4-3. Cells were infected for two hr after which, the virus was removed and the cells were washed with culture media. Equivalent numbers of cells were seeded into 24 well plates and compounds were added to the cultured cells that included: TPA at 8 riM and 80 nM, Ingenol at 280 nM, PEP003 at 500 nM, 50 nM and 5 nM, or PEP004 at dilutions of 1×10^4 and 1×10^5 from the stock (final concentrations). In addition, uninfected activated PBMC were grown in the presence of TPA (80 nM), Ingenol (280 nM), PEP003 (500 nM) and PEP004 (1×10^4 dilution). Other cultures were neither infected nor treated with any compound, or infected but not treated with any compound. Supernatant was removed from each culture at day 0, 3, 7, and 10. The amount of HIV-1 CA-p24 was determined using a commercially available ELISA assay. Three independent experiments were performed.

[4] = tested on: Peripheral blood mononuclear cells (PBMC); assay: Respiratory burst (H2O2) in PBMC, DCFH-DA flow cytometry; assay type: cell-based; details: 15 min at 37° C.; granulocytes, monocytes, lymphocytes
Protocol: Experiments were also carried out using 2′,7′-dichlorofluorescein diacetate (DCFH-DA) to measure the production of H2O2.(J P Robinson, Oxidative burst methods, in Handbook of Flow Cytometry Methods, Wiley-Liss Inc, pp147-149, 1993). H2O2 oxidizes the non-fluorescent probe (DCFH-DA) to a fluorescent probe that can then be detected by a flow cytometer. Peripheral blood mononuclear cells (PBMC) were extracted from a donor blood sample by lysis of heparinized blood and used in a suspension of 1×10^6/mL of phosphate buffer, pH 7.3. The cells were then incubated with DCFH-DA (1 μL/mL of 20 mM stock) for 15 minutes to allow it to be taken up and trapped by hydrolysis with cellular esterases. The cells were then stimulated by test compounds for 15 min at 37° C. Controls included in the experiment were unloaded control (cells with no DCFH-DA) and loaded control (cells with DCFH-DA, but no stimulation). These were used to monitor the non-specific oxidation of unstimulated cells. The cells were then analyzed on the flow cytometer (excitation at 488 nm, emission at 525±20 nm), gating each sample for individual cell populations-granulocytes, monocytes and lymphocytes (Table 3).

[5] = tested on: peripheral blood mononuclear cells (PBMCs); assay: Phagocytosis with fluorescent beads; assay type: cell-based; details: whole heparinized blood, 30 min at 37° C.
Protocol: Phagocytosis by peripheral blood mononuclear cells (PBMCs) was assayed (Steinkamp et al., 1982) using 1 μm Fluoresbrite™ yellow-green fluorescent latex spheres (Polysciences, Inc., Warrington, Pa.). A sample of whole, heparinized blood was treated with drug and 5×10E7 fluorescent latex beads in 10 μL of PBS added per mL of suspension. Cells were incubated and maintained in suspension for 30 min by means of a shaker platform at 37° C. The stirnulated and non-stimulated samples were then lysed to isolate PBMCs. The PBMCs were run on the flow cytometer measuring FITC (excitation at 488 nm, emission at 525±20 nm), gated for fluorescence (phagocytosed spheres) and light scatter (cell size).

[6] = tested on: EBV in Burkitt's lymphoma cell lines (MutuI and BL74); assay: EBV activation in Burkitt's lymphoma cell lines (VCA western blot); assay type: cell-based
Protocol: To ensure that equal amounts of each sample were analyzed, the gels were stained with Coomassie blue and the loadings were adjusted to make them equal. […] Next the PEP003 and PEP004 were assayed on two Burkitt's lymphoma cell lines and an LCL. This time only concentrations of 10^−5 and 10^−7 were used.

CCCCCCCCCCCCCC(=O)O[C@@H]1[C@@H](C)[C@@]2(O)[C@@H](C=C(CO)C[C@]3(O)C(=O)C(C)=C[C@@H]23)C2C(C)(C)[C@@]21OC(C)=O (single isomer, unassigned) [TPA]
number of PKCα transfected cells displaying Golgi-like fluorescence ([1]; one hour treatment): increase in the number of cells displaying Golgi-like fluorescence
translocation of PKCα to the plasma membrane ([1]; one hour, TPA 100 ng/mL, bryostatin-1 5 pg/mL, PEP003 2.25 μg/mL (5 μM)): translocated from the cytoplasm to the plasma membrane
activation of HIV from U1 cells (p24 production) [2]: activated HIV from U1 cells
reduction of HIV-1 replication rate ([3]; 8 nM): ~38%
reduction of HIV-1 replication rate ([3]; 80 nM): ~98%
induction of a respiratory burst (H2O2, DCFH-DA) [4]: respiratory burst seen
stimulation of phagocytosis of fluorescent latex beads [5]: stimulate phagocytosis in PBMCs
induction of VCA in MutuI cells [6]: TPA did not
